Test results reported in US9040523B2, “Antifungal 5,6-dihydro-4H-pyrrolo[1,2-α][1,4]-benzodiazepines and 6H-pyrrolo[1,2-α][1,4]benzodiazepines substituted with benzene derivatives” (JANSSEN PHARMACEUTICA NV, priority 2010, dated 2015).
Read-outs that look alike come from different tables or passages of the source.

Tests used:
[1] = tested on: Sporothrix schenkii B62482; assay: Antifungal activity in vitro (resazurin susceptibility screen), Inf. A; assay type: cell-based; settings: for IC50: Sporothrix
Procedure, shortened: (§1)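 This resazurin susceptibility screen used wells inoculated with 10^3 cfu per 200 μl in RPMI-MOPS, dispensed onto test plates holding spotted compound dilutions. Growth was normalised between fungus without antifungal (100%) and medium alone (0%).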

Microsporum canis B68128 = assay: Antifungal activity in vitro (resazurin susceptibility screen), Inf. B; assay type: cell-based
Procedure, shortened: (§2)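 Each well was inoculated with 10^3 cfu of fungus onto dried, pre-spotted compound serial dilutions in RPMI-MOPS medium, with fungal growth read by resazurin. Growth was referenced to drug-free culture (100%) and medium-only (0%) controls on each plate.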

[2] = tested on: Trichophyton rubrum B68183; assay: Antifungal activity in vitro (resazurin susceptibility screen), Inf. C; assay type: cell-based
Procedure, shortened: as §1

[3] = tested on: Candida parapsilosis B66126; assay: Antifungal activity in vitro (resazurin susceptibility screen), Inf. D; assay type: cell-based
Procedure, shortened: as §2

[4] = tested on: Aspergillus fumigatus B42928; assay: Antifungal activity in vitro (resazurin susceptibility screen), Inf. E; assay type: cell-based
Procedure, shortened: as §1

[5] = tested on: Cryptococcus neoformans B66663; assay: Antifungal activity in vitro (resazurin susceptibility screen), Inf. F; assay type: cell-based; settings: for IC50: Cryptococcus neoformans
Procedure, shortened: as §1

[6] = tested on: Trichophyton mentagrophytes B70554; assay: Antifungal activity in vitro (resazurin susceptibility screen), Inf. G; assay type: cell-based; settings: for IC50: Trichophyton mentagrophytes
Procedure, shortened: as §2

[7] = Liver metabolic stability assay, hLM; assay type: in vitro ADME, human; settings: human liver microsomes, 1 mg protein/ml, 5 μM test compound, 15 min, 37 °C
Description: (§3) Liver preparations (microsomal fractions) were obtained from BD Gentest (San Jose, Calif., US). Metabolic stability was assessed using the following assay conditions. […] The mixture was pre-incubated at 37° C. for 5 min and the enzymatic reaction was started by addition of 5 μM test compound. After 0 (control) and 15 minutes (min), the reactions were terminated by addition of […] (500 μl). The precipitated material was removed by centrifugation at 1200 g for 10 min. The supernatant was analysed by LC-MS/MS on a ThermoFinnigan LCQ Deca XP ion-trap mass spectrometer equipped with an atmospheric pressure chemical ionisation source. Calculation of %-compound remaining was as described by Kantharaj et al. 2003 ((Kantharaj E., Tuytelaars A, Proost P E A, Ongel Z, van […] (2003). Simultaneous measurement of drug metabolic stability and identification of metabolites using ion-trap mass spectrometry.

[8] = Liver metabolic stability assay, mLM; assay type: in vitro ADME; settings: mouse liver microsomes, 1 mg protein/ml, 5 μM test compound, 15 min, 37 °C
Description: as §3

[9] = Liver metabolic stability assay, gpLM; assay type: in vitro ADME, guinea pig
Description: as §3

CYP3A4 = CYP3A4 (Homo sapiens, UniProt P08684); assay: Cytochrome P450 inhibition, Protocol A, cDNA expressed proteins, fluorogenic substrates; assay type: in vitro ADME; settings: % inhibition at 10 μM, cDNA expressed protein
Description: (§4) All fluorogenic based assays were performed in Black Costar 96-well plates according to Crespi et al 1997 with minor modifications (Crespi C L, Miller V P & Penman B W (1997). Microtiter plate assays for inhibition of human, drug-metabolizing cytochromes P450. Anal. Biochem. Vol 248, 1898-1900). Assay conditions are outlined in Table 5a. For cytochrome P450 3A4, three different fluorogenic substrates were used. Each reaction mixture consisted of the appropriate concentration of enzyme, NADPH-generating system (“NADPH” means β-nicotinamide adenine dinucleotide phosphate, reduced), substrate in sodium/potassium buffer (pH 7.4). For each cytochrome P450 batch Michealis-Menten kinetics were determined using 11 concentrations.
(§5) Thereafter, further dilutions were made in acetonitrile. […] The compounds were serially diluted to give final concentrations ranging from 1 nM to 10 μM. The reaction mixtures, whereby 1 μL of buffer was replaced by compound solution, were pre-warmed for 5 min at 37° C. and the reaction was initiated by the addition of β-nicotinamide adenine dinucleotide phosphate (NADP+). Reactions were terminated by addition of stopping reagent and the fluorescence was measured using a Fluoroscan (Labsystems, Brussel, Belgium).
(§6) In Table 5a, the following abbreviations were used: 3-cyano-7-ethocycoumarin (CEC), 7-methoxy-4-trifluoromethylcoumarin (MFC), 3-[2-(N,N-diethyl-N-methylamino)ethyl]-7-methoxy-4-methylcoumarin (AMMC), 7-benzyloxy-trifluoromethyl coumarin (BFC), 7-benzyloxyquinoline (BQ) and dibenzyl fluorescein (DBF).

CYP1A2 = molecular target: T1, CYP1A2 (Homo sapiens, UniProt P05177); assay: Cytochrome P450 inhibition, Protocol A, cDNA expressed proteins, fluorogenic substrate; assay type: in vitro ADME; settings: % inhibition at 10 μM; substrate CEC; cDNA expressed protein
T1 sequence (P05177 1-516): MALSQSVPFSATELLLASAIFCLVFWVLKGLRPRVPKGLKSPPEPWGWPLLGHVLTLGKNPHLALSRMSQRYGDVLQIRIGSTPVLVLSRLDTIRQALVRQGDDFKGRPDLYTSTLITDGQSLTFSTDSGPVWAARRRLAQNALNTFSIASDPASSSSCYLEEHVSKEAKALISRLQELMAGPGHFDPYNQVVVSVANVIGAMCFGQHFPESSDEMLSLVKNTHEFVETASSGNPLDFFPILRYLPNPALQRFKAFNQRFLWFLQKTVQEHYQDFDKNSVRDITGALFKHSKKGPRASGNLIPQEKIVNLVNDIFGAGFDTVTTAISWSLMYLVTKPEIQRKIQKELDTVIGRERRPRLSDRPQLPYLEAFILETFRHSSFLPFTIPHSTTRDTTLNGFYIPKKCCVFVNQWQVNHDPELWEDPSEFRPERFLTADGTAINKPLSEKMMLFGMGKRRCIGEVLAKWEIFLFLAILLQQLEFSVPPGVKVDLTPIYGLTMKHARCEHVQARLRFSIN
Description: as §4, §5, §6

CYP2C9 = CYP2C9 (Homo sapiens, UniProt P11712); assay: as above; assay type: in vitro ADME; settings: % inhibition at 10 μM; substrate MFC; cDNA expressed protein
Description: as §4, §5, §6

CYP2D6 = CYP2D6 (Homo sapiens, UniProt P10635); assay: as above; assay type: in vitro ADME; settings: % inhibition at 10 μM; substrate AMMC; cDNA expressed protein
Description: as §4, §5, §6

Cytochrome P450 1A2 = molecular target: T2, Cytochrome P450 1A2 (Homo sapiens, UniProt P05177); assay: Human liver microsomal cytochrome P450 cocktail inhibition assay, Protocol C
T2 sequence (P05177 1-516): T1 sequence (P05177 1-516)
Description: (§7) Probe substrates and final assay concentrations with the appropriate internal standard are outlined in Table 6a.
(§8) Assays were performed in 0.1 M phosphate buffer (pH 7.4), containing 0.2 mg/ml human liver microsomes (BD Gentest) and a probe substrate mix consisting of: phenacetin, tolbutamide, S-mephenyloin, dextromethorphan, amodiaquine and midazolam (Table 6a) and a range of test compound concentrations (0 to 30 micromolar) in a total volume of 100 microliters. After a 10 min pre-incubation at 37° C., the reaction was started with addition of NADPH at a final concentration of 1.0 mM. […] The samples are centrifuged for 10 min at 4° C. at 4000 rpm and 60 microliters supernatant is diluted with 180 microliters water. Each sample is injected onto a UPLC/MS system for the simultaneous measurement of the probe substrate metabolites and their associated deuterated internal standards. Percentage inhibition is calculated according to: %-inhibition=(1−Ri/R)*100, whereby Ri and R are the metabolite to internal standard peak area ratios in the presence and absence of inhibitor respectively.
(§9) Percentage inhibition data are plotted against the Log transformed test compound concentration and after curve fitting the IC50-value is determined.

Cytochrome P450 2C19 = Cytochrome P450 2C19 (Homo sapiens, UniProt P33261); assay: as above; settings: 2C19_S-Meph pIC50, human liver microsomes 0.2 mg/ml; probe S-mephenytoin 30 microM
Description: as §7, §8, §9

Cytochrome P450 2C9 = Cytochrome P450 2C9 (Homo sapiens, UniProt P11712); assay: as above; settings: 2C9 Tolbut pIC50, human liver microsomes 0.2 mg/ml; probe tolbutamide 100 microM
Description: as §7, §8, §9

Cytochrome P450 2D6 = Cytochrome P450 2D6 (Homo sapiens, UniProt P10635); assay: as above; settings: 2D6_Dextro pIC50, human liver microsomes 0.2 mg/ml; probe dextromethorphan 3 microM
Description: as §7, §8, §9

Cytochrome P450 2C8 = molecular target: T3, Cytochrome P450 2C8 (Homo sapiens, UniProt P10632); assay: as above; assay type: in vitro ADME; settings: human liver microsomes 0.2 mg/ml; probe amodiaquine 2 microM; read-out: 2C8_Amod pIC50 (converted)
T3 construct: tissue BD Gentest; host or cells: human liver microsomes
T3 sequence (P10632 1-490): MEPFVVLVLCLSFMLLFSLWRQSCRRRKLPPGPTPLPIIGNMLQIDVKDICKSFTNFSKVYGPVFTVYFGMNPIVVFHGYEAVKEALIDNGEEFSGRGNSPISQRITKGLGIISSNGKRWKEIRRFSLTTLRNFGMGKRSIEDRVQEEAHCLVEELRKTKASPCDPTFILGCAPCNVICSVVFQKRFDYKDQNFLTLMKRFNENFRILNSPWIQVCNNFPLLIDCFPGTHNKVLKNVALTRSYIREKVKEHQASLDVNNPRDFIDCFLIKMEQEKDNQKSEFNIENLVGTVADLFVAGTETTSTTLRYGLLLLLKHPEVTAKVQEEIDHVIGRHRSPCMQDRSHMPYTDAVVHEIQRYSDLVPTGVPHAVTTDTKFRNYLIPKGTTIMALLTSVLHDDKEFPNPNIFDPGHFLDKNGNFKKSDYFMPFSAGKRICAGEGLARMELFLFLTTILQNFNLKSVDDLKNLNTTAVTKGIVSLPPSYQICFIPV
Description: as §7, §8, §9

[10] = guinea pig microsomes, 1 mg protein/ml, 5 μM test compound, 15 min, 37 °C

Chain of CYP3A4 (P08684 whole entry): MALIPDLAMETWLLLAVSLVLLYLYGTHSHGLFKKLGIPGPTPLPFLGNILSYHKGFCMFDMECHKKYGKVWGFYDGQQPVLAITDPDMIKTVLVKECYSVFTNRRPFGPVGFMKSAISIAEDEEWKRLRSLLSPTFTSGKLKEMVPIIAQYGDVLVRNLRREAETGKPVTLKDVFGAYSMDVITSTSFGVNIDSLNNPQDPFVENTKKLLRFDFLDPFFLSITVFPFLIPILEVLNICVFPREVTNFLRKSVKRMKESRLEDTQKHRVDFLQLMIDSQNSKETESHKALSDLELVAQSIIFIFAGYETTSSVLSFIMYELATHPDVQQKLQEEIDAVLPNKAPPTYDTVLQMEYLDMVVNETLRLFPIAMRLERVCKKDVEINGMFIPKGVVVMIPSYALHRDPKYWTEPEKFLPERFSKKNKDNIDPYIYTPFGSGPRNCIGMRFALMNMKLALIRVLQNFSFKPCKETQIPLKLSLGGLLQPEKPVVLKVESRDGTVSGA
Chain of Cytochrome P450 2D6 (P10635 whole entry): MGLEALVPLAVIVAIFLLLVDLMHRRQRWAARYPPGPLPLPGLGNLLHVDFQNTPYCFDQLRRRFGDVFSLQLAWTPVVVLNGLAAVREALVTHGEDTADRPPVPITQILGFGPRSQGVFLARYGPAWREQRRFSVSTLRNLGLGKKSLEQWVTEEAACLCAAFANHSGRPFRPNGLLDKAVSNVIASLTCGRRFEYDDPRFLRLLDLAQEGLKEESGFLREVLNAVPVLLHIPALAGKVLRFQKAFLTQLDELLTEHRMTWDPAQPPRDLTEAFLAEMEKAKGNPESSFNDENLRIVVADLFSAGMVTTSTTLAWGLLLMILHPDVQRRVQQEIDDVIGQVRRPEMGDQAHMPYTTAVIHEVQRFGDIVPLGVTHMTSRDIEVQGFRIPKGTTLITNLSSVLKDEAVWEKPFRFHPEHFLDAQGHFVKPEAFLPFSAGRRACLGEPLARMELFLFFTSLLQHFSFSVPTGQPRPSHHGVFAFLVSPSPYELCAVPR
Chain of CYP2D6 (P10635 whole entry): as above
Chain of Cytochrome P450 2C19 (P33261 whole entry): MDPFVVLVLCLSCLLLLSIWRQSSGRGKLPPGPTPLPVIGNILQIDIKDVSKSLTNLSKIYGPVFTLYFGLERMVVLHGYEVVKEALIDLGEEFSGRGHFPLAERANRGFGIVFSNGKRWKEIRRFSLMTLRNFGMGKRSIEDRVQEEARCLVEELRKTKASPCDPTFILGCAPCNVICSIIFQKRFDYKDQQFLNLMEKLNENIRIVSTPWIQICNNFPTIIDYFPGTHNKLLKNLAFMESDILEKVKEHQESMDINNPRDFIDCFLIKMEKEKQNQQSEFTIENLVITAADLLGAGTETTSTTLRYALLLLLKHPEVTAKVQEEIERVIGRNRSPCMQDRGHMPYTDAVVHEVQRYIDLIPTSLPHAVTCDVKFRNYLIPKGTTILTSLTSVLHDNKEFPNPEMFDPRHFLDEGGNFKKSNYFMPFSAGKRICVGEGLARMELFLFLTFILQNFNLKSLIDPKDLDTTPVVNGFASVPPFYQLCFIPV
Chain of CYP2C9 (P11712 whole entry): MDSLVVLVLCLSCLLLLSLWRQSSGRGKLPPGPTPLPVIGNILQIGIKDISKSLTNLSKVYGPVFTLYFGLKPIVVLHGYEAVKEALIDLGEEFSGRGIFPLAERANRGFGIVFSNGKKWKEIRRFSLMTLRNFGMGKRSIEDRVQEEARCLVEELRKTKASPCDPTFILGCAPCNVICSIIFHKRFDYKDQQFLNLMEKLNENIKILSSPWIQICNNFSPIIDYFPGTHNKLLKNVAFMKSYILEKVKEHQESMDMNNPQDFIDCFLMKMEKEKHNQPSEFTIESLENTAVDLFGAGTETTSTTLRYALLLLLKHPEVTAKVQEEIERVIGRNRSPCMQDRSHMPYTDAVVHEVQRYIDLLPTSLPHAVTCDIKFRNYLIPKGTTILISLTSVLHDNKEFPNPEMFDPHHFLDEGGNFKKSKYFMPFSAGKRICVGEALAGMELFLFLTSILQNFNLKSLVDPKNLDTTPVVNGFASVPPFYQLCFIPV
Chain of Cytochrome P450 2C9 (P11712 whole entry): as above

## CC(O)c1ccc(C2NCc3c(Cl)cccc3-n3cccc32)cc1 (stereo not drawn) [Compound 1, 4-(7-chloro-5,6-dihydro-4H-pyrrolo[1,2-a][1,4]benzodiazepin-4-yl)-alpha-methyl-benzenemethanol]
[1]; B62482, read-out: Inf. A pIC50 (converted)
  IC50: > 63.1 µM
Microsporum canis B68128; Microsporum canis, B68128, read-out: Inf. B pIC50 (converted)
  IC50: 3.16 µM
[2]; Trichophyton rubrum, B68183, read-out: Inf. C pIC50 (converted)
  IC50: 3160 nM
[3]; Lodderomyces parapsilosis, B66126, read-out: Inf. D pIC50 (converted)
  IC50: > 63.1 µM
[4]; Aspergillus fumigatus, B42928, read-out: Inf. E pIC50 (converted)
  IC50: > 63100 nM
[5]; B66663, read-out: Inf. F pIC50 (converted)
  IC50: 63.1 µM
[6]; B70554, read-out: Inf. G pIC50 (converted)
  IC50: 12.6 µM
[7]
  %-compound metabolised_Met_hLM: 43%
[8]
  %-compound metabolised Met_mLM: 51%
[9]; guinea pig, microsomes, 0.25 h, 5 μM, pH 7.4
  %-compound metabolised Met_gpLM: 86%
other
  melting point: 118.5 to 121.2 °C

## CC(=O)c1ccc(C2NCc3c(Cl)cccc3-n3cccc32)cc1.Cl (stereo not shown) [Compound 5, 1-[4-(7-chloro-5,6-dihydro-4H-pyrrolo[1,2-a][1,4]benzodiazepin-4-yl)phenyl]-ethanone .HCl]
[1]; B62482, Sporothrix schenkii B62482, 27 °C, 4 days, resa time 24 hours, highest in-test concentration 64 μM, read-out: Inf. A pIC50 (converted)
  IC50: 39.8 µM
[2]; Trichophyton rubrum B68183, 27 °C, 7 days, resa time 24 hours, read-out: Inf. C pIC50 (converted)
  IC50: 501 nM
[4]; Aspergillus fumigatus B42928, 27 °C, 48 hours, resa time 17 hours, read-out: Inf. E pIC50 (converted)
  IC50: 2000 nM
[5]; B66663, Cryptococcus neoformans B66663, 37 °C, 24 hours, resa time 4 hours, read-out: Inf. F pIC50 (converted)
  IC50: 25.1 µM
[6]; B70554, Trichophyton mentagrophytes B70554, 27 °C, 7 days, resa time 24 hours, read-out: Inf. G pIC50 (converted)
  IC50: 0.631 µM
[7]
  %-compound metabolised_Met_hLM: 59%
[8]
  %-compound metabolised Met_mLM: 72%
[9]; [10]
  %-compound metabolised Met_gpLM: 88%

## CC(=O)c1ccc(C2=NCc3c(ccc(Cl)c3Cl)-n3cccc32)cc1.Cl [Compound 21, 1-[4-(7,8-dichloro-6H-pyrrolo[1,2-a][1,4]benzodiazepin-4-yl)phenyl]-ethanone .HCl]
[1]; Sporothrix schenkii B62482, 27 °C, 4 days, resa time 24 hours, highest in-test concentration 64 μM
  Inf. A pIC50: <4.2
Microsporum canis B68128; Microsporum canis B68128, 27 °C, 9 days, resa time 24 hours
  Inf. B pIC50: <4.2
[2]; Trichophyton rubrum B68183, 27 °C, 7 days, resa time 24 hours
  Inf. C pIC50: <4.2
[3]; Candida parapsilosis B66126, 37 °C, 24 hours, resa time 4 hours
  Inf. D pIC50: <4.2
[4]; Aspergillus fumigatus B42928, 27 °C, 48 hours, resa time 17 hours
  Inf. E pIC50: <4.2
[5]; Cryptococcus neoformans B66663, 37 °C, 24 hours, resa time 4 hours
  Inf. F pIC50: <4.2
[6]; Trichophyton mentagrophytes B70554, 27 °C, 7 days, resa time 24 hours
  Inf. G pIC50: <4.2
[7]
  %-compound metabolised_Met_hLM: 17%
[8]
  %-compound metabolised Met_mLM: 24%
[9]; [10]
  %-compound metabolised Met_gpLM: 64%
CYP3A4; substrate BFC
  hCYP3A4_BFC_Pct_Inh: 0%
CYP3A4; substrate BQ
  hCYP3A4_BQ_Pct_Inh: 26%
CYP3A4; substrate DBF
  hCYP3A4_DBF_Pct_Inh: 26%
CYP1A2
  hCYP1A2_CEC_Pct_Inh: 27%
CYP2C9
  hCYP2C9_MFC_Pct_Inh: 54%
CYP2D6
  hCYP2D6_AMMC_Pct_Inh: 39%

## CC(=O)c1ccc(C2NCc3ccc(Cl)cc3-n3cccc32)cc1 (stereo not shown) [drawing 101]
Cytochrome P450 1A2
  IC50: > 10 µM
Cytochrome P450 2C19
  IC50: 3.16 µM
Cytochrome P450 2C9
  IC50: 6.31 µM
Cytochrome P450 2D6
  IC50: 7.94 µM
Cytochrome P450 2C8
  IC50: 7.94 µM
